Results: patent publication US20180153872A1, “HETEROARYL CARBONITRILES FOR THE TREATMENT OF DISEASE” (OPKO Health, Inc., priority 2015, published 2018)
“And” between values parts separate entries of the source, which are not always exact repeats. Equal entries are not always repeated.

Assays:
NK1 receptor [1] = molecular target: T1, NK1 receptor (Meriones unguiculatus, UniProt Q5DUB1); test: NK1 receptor radioligand binding, gerbil; conditions: no unit, Ki in nM
Procedure: (§1) SCH900978 was also tested for NK2 and NK3 receptor activity and in 106 other receptors, transporters, enzymes and ion channels and had greater than 1000 fold lower affinity for these than for the NK1 receptor.

NK1 receptors [2] = molecular target: NK1 receptors (Rattus norvegicus, UniProt P14600); test: NK1 receptor radioligand binding, rat; conditions: no unit, Ki in nM
Procedure: as §1

NK1 receptors [3] = molecular target: NK1 receptors (Mus musculus, UniProt P30548); test: NK1 receptor radioligand binding, mouse; conditions: no unit, Ki in nM
Procedure: as §1

NK1 receptor [4] = molecular target: NK1 receptor (Homo sapiens, UniProt P25103); test: Block of GR-73632-mediated calcium efflux in cells expressing the human NK1 receptor (Schild analysis); format: cell-based; conditions: GR-73632-stimulated calcium efflux, read-out: Kb, equilibrium dissociation constant determined by Schild analysis
Excerpt: (§2) A compound of formula I (also designated SCH 900978) is a potent, selective, competitive neurokinin-1 (NK-1) receptor antagonist that is effective as an oral administered drug for the treatment of cough and meets this unmet medical need. In addition, this drug is effective for the treatment of overactive bladder (OAB) and other selected indications including major depression and alcohol dependency. […] The present invention comprises a compound of formula I having an effective dose for 90% inhibition [ED90]=0.2 mg/kg as determined in an in vivo pharmacodynamic model of NK1 receptor activity (gerbil foot thumping).
as §1

NK2 receptor = molecular target: T2, NK2 receptor (Homo sapiens, UniProt P21452); test: NK2 receptor affinity; format: binding
T2 sequence (P21452 1-398): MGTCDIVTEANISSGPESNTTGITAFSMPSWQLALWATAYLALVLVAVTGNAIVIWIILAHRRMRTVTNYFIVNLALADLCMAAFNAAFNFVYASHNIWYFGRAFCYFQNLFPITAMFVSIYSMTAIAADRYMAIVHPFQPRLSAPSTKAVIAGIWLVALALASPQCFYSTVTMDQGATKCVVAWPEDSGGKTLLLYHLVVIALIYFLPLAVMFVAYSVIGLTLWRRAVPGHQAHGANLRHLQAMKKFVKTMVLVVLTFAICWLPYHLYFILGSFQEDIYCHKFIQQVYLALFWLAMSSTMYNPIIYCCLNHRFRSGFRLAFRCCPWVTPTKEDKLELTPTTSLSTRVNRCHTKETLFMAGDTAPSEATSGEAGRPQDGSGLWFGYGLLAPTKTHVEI
Excerpt: as §2, §1

[5] = test system: 106 other receptors, transporters, enzymes and ion channels; test: Panel of 106 other receptors, transporters, enzymes and ion channels; format: binding
Procedure: as §1

capsaicin-induced cough = test: Capsaicin-induced cough in conscious guinea pigs; format: in vivo; conditions: guinea pig
Procedure: Inhalation of the irritant capsaicin induces coughing in both animals and humans, in part by releasing substance P from unmyelinated sensory C fibers in the lung. When administered orally to conscious guinea pigs six hours prior to inhalation of aerosolized capsaicin, SCH900978 attenuated capsaicin-induced cough in a dose-dependent manner (ED90=0.04 mg/kg) (FIG. 2).

[6] = test system: cough induced by mechanical stimulation of the intrathoracic trachea; test: Mechanically induced cough in anesthetized dogs; format: in vivo; conditions: anesthetized dog, 0.3 mg/kg oral
Procedure: (§3) The antitussive activity of SCH 900978 was also evaluated against cough induced by mechanical stimulation of the intrathoracic trachea in anesthetized dogs. Cough was measured in each stimulation trial by the cough frequency (number of coughs) and cough amplitude (cm H2O increase in expiratory pressure). […] Plasma concentration of SCH900978 at 2, 6 and 25 hours after administration of the 0.3 mg/kg dose to dogs were 201, 151 and 102 ng/mL (373, 280 and 189 nM), respectively.

[7] = Plasma concentration after oral dose in dogs; format: in vivo; conditions: dog, 0.3 mg/kg oral
Procedure: as §3

hERG gene current = hERG gene current (Homo sapiens, UniProt Q12809); test: hERG current inhibition; format: cell-based
Procedure: (§4) A series of in vitro and in vivo studies examined the effects of SCH900978 on cardiovascular, respiratory and CNS functions. No adverse effects were observed. The NOAEL was ≥25 mg/kg in male rats, ≥12.5 mg/kg in female rats and ≥10 mg/kg in male cynomolgus monkeys; each dose was the highest dose tested.

in vivo = test: in vivo
Procedure: as §4

[8] = Pharmacokinetics/toxicokinetics and excretion in rats; format: in vivo, rat; conditions: for plasma concentration-time profile: single oral dose
Excerpt: (§5) Urinary excretion was also substantial (approximately 20%).

Plasma protein binding = format: in vitro ADME; conditions: all mammals tested and human
Excerpt: as §5

[9] = Metabolic pathways in the mammals tested; format: in vivo
Excerpt: as §5

Brain penetration, rats = format: in vivo, rat
Procedure: as §5
(§6) The extent of brain penetration by SCH 900978 was evaluated after oral administration of SCH 900978 amorphous hydrochloride to female gerbils (0.1 mg/kg), male Sprague Dawley rats (5 mg/kg), and male guinea pigs (0.3 mg/kg).

[10] = Brain penetration, gerbils; format: in vivo, gerbil
Procedure: as §5, §6

[11] = Brain penetration, guinea pigs; format: in vivo, guinea pig
Procedure: as §5, §6

NK1 receptor [12] = molecular target: T1, NK1 receptor; test: Gerbil foot thumping (in vivo pharmacodynamic model of NK1 receptor activity); design: from tissue; host or cells: living gerbil (central NK1 receptors)
Excerpt: Intracerebroventricular administration of NK1 receptor agonists to gerbils induces vigorous thumping in the hind feet. This response can be blocked by NK1 receptor antagonists.

T1 sequence (Q5DUB1 whole entry): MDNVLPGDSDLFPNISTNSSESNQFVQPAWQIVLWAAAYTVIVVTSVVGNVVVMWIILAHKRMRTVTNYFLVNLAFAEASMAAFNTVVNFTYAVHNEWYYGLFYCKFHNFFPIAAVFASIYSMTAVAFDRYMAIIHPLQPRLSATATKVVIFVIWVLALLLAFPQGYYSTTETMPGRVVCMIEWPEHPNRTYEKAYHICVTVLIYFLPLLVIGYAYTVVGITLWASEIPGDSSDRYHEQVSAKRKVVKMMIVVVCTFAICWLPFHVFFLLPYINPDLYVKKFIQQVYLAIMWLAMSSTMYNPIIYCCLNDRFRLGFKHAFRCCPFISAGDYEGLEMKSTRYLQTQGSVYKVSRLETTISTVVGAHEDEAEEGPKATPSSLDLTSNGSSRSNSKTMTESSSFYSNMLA
NK1 receptor (Homo sapiens, UniProt P25103), sequence (P25103 whole entry): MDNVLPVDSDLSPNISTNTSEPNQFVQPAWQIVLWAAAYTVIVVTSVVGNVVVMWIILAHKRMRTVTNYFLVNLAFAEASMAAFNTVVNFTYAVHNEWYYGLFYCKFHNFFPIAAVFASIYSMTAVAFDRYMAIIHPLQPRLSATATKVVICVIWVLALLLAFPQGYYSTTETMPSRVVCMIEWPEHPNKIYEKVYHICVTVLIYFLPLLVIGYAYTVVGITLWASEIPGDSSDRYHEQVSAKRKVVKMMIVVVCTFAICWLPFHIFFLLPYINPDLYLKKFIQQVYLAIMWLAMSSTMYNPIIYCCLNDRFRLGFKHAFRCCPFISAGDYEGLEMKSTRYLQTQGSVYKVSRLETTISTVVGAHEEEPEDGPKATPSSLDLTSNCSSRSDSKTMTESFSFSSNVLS
NK1 receptors (Mus musculus, UniProt P30548), sequence (P30548 whole entry): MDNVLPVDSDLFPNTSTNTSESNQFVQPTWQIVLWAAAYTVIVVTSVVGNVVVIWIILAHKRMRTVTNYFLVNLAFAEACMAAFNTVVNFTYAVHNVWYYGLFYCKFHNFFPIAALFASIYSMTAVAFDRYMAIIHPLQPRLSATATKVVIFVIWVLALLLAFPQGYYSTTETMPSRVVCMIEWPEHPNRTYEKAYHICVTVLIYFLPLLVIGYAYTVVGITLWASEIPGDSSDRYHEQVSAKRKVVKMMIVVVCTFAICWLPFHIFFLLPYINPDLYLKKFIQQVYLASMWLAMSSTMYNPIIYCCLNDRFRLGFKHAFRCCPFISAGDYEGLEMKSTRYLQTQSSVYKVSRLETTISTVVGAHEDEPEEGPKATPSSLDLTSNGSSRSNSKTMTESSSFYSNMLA
NK1 receptors (Rattus norvegicus, UniProt P14600), sequence (P14600 whole entry): as the sequence (P30548 whole entry) above, with V7M, T15I, I266V, D367E counted along it
hERG gene current, sequence (Q12809 whole entry): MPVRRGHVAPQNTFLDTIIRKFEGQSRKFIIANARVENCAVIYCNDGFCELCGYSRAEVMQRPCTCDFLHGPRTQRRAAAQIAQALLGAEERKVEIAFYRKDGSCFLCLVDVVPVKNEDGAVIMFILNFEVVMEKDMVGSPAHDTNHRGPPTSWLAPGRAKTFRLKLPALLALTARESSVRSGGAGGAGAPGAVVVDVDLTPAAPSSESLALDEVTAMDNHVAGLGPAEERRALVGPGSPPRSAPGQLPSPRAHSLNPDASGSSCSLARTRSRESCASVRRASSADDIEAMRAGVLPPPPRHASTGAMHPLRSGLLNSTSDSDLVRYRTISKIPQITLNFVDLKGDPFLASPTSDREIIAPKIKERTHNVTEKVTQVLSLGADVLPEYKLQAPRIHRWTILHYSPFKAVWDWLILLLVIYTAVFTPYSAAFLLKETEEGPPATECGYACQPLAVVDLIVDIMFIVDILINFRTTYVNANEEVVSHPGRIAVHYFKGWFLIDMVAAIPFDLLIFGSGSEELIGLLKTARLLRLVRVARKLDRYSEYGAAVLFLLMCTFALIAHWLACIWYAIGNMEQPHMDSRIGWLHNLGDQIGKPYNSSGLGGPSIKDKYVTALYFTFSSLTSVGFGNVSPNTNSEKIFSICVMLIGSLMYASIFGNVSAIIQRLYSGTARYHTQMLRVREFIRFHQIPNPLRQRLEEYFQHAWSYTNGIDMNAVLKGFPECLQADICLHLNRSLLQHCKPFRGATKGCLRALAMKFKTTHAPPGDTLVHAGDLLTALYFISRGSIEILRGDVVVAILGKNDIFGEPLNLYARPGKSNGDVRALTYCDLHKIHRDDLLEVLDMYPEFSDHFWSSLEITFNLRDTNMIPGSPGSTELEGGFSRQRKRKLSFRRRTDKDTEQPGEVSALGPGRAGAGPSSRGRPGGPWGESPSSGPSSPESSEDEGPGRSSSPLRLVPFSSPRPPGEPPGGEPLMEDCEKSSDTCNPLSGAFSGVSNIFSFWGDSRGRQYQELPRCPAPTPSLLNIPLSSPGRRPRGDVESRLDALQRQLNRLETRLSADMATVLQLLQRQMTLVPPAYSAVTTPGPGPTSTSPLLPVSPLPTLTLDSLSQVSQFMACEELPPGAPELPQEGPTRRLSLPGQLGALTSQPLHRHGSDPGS

`C[C@@H](OC[C@@]1(c2ccccc2)CC[C@](C#N)(n2cn[nH]c2=O)CN1)c1cc(C(F)(F)F)cc(C(F)(F)F)c1` [Compound 42, (3 S,6S)-6-({(1R)-1-[3,5-bis(trifluoromethyl)phenyl]ethoxy}methyl)-3-(5-oxo-1,5dihydro-4H-1,2,4-triazol-4-yl)-6-phenylpiperidine-3-carbonitrile] showed a Ki (NK1 receptor [1]) of 0.2 nM, a Ki (NK1 receptors [2]) of 4.62 nM and a Ki (NK1 receptors [3]) of 0.76 nM. The Kb (NK1 receptor [4]) was 0.17 nM, the Ki (NK2 receptor) was over 1000 nM and the “fold lower affinity than for the NK1 receptor” value (NK2 receptor; NK2 vs NK1) was “greater than 1000 fold”. The “affinity for a battery of other receptors, transporters, enzymes or ion channels” value [5] was “does not have significant affinity”, the “fold lower affinity than for the NK1 receptor” value ([5]; 106 other receptors, transporters, enzymes and ion channels vs NK1) was “greater than 1000 fold” and the “maximal inhibition of capsaicin-induced cough” value (capsaicin-induced cough) was “comparable to that produced by the standard antitussive agents”. For the same compound, the “ED90, capsaicin-induced cough” value (capsaicin-induced cough; oral, six hours prior to aerosolized capsaicin) was 0.04 mg/kg, the “duration of significantly reduced cough amplitude” value [6] was “up to 24 hours” and the “duration of significantly reduced cough frequency” value [6] was “up to 24 hours”. The concentration at 2 h ([7]; 2 hours) was 201 ng/mL and 373 nM, the concentration at 6 h ([7]; 6 hours) was 151 ng/mL and 280 nM and the concentration at 25 h ([7]; 25 hours) was 102 ng/mL and 189 nM. The IC50 (hERG gene current) was 860 nM, the NOAEL (in vivo; female, rat) was at least 12.5 mg/kg and the NOAEL (in vivo; male, cynomolgus monkey) was at least 10 mg/kg. The NOAEL (in vivo; male, rat) was at least 25 mg/kg, the “systemic exposure after repeated administration” value ([8]; female and male rats, doses >=25 mg/kg, most likely CYP enzyme induction) was “decreased following repeated administration” and the “plasma concentrations over 24 hours after 29th dose versus first dose” value ([8]; female rats 0.5 to 12.5 mg/kg, male rats 1 to 5 mg/kg) was “greater”. The “systemic exposure (AUC) versus dose, single dose” value ([8]; male rats 0.6 to 500 mg/kg, female rats 0.5 to 250 mg/kg, no further increase at the highest doses) was “increased with increasing dose”, the “exposure, effect of sex” value ([8]; rats) was “higher in female rats than in male rats” and the exposure versus dose ([8]; rats, once daily oral doses for one month) was “generally increased as the dose increased”. For the same compound, the major elimination pathway ([8]; rats, oral administration) was “excretion into the feces”, the plasma concentration-time profile ([8]; rats, listed as SCH 900978) was “extended absorption of SCH900978 with a long t1/2” and the plasma concentration-time profile ([8]; rats, listed as SCH900978) was “extended absorption of the drug and a long apparent terminal elimination phase half-life”. The protein bound (Plasma protein binding) was at least 99.6%, the major metabolic pathways [9] was “oxidation and glucuronidation” and the “crossing of the blood brain barrier” value (Brain penetration, rats) was “readily crossed the blood brain barrier”. For the same compound, the “crossing of the blood brain barrier” value [10] was “readily crossed the blood brain barrier”, the “crossing of the blood brain barrier” value [11] was “readily crossed the blood brain barrier” and the “duration of significant inhibition of NK1 agonist-induced foot thumping” value (NK1 receptor [12]; 0.3 mg/kg oral dose) was “up to 48 hours”. For the same compound, the “ED90, effective dose for 90% inhibition of foot thumping” value (NK1 receptor [12]; oral, six hours before testing, GR 73632-induced) was 0.2 mg/kg.
